Measured values reported in PubChem BioAssay AID1919003 (Molecular Pharmacology Branch, DTP, NCI, 2023).

Test system: 786-0 complex spheroids with HUVEC/MSC, growth % test/control
Assay: Anticancer human tumor 786-0 cell line growth inhibition [AhR];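 also: compound exposure lasted seven days before the read-out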
Settings: for IC50: curve of first compound; for viability, T/C: stronger effect = lower value
Procedure, shortened: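 Agents were dosed in half-log steps down from roughly clinical Cmax, or from 10 microM where Cmax was unknown, alone and with AhR antagonists. Read-out: percent test/control growth of tumor spheroids containing HUVEC and MSC stromal cells.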

[1] = second compound 0.1 µM, first compound 0.0316 µM
[2] = second compound 0.1 µM, first compound 0.1 µM
[3] = second compound 0.1 µM, first compound 0.316 µM
[4] = second compound 0.1 µM, first compound 1 µM
[5] = second compound 0.1 µM, first compound 3.16 µM
[6] = second compound 0.1 µM, first compound 10 µM
[7] = second compound 0.316 µM, first compound 0.0316 µM
[8] = second compound 0.316 µM, first compound 0.1 µM
[9] = second compound 0.316 µM, first compound 0.316 µM
[10] = second compound 0.316 µM, first compound 1 µM
[11] = second compound 0.316 µM, first compound 3.16 µM
[12] = second compound 0.316 µM, first compound 10 µM
[13] = second compound 1 µM, first compound 0.0316 µM
[14] = second compound 1 µM, first compound 0.1 µM
[15] = second compound 1 µM, first compound 0.316 µM
[16] = second compound 1 µM, first compound 1 µM
[17] = second compound 1 µM, first compound 3.16 µM
[18] = second compound 1 µM, first compound 10 µM
[19] = second compound 3.16 µM, first compound 0.0316 µM
[20] = second compound 3.16 µM, first compound 0.1 µM
[21] = second compound 3.16 µM, first compound 0.316 µM
[22] = second compound 3.16 µM, first compound 1 µM
[23] = second compound 3.16 µM, first compound 3.16 µM
[24] = second compound 3.16 µM, first compound 10 µM
[25] = second compound 10 µM, first compound 0.0316 µM
[26] = second compound 10 µM, first compound 0.1 µM
[27] = second compound 10 µM, first compound 0.316 µM
[28] = second compound 10 µM, first compound 1 µM
[29] = second compound 10 µM, first compound 3.16 µM
[30] = second compound 10 µM, first compound 10 µM

Row | SMILES | IC50 (second compound 0.1 µM) | IC50 (second compound 0.316 µM) | IC50 (second compound 1 µM) | IC50 (second compound 3.16 µM) | IC50 (second compound 10 µM) | viability, T/C [1] | viability, T/C [2] | viability, T/C [3] | viability, T/C [4] | viability, T/C [7] | viability, T/C [8] | viability, T/C [9] | viability, T/C [10] | viability, T/C [13] | viability, T/C [14] | viability, T/C [15] | viability, T/C [16] | viability, T/C [19] | viability, T/C [20] | viability, T/C [21] | other results
1 | CC(C)c1c(-c2ccccc2)nc2c(C#N)c[nH]n2c1=O + Cc1cncc(-c2nc(NCCc3c[nH]c4ccccc34)c3ncn(C(C)C)c3n2)c1 | > 10000 nM | > 10000 nM | > 10000 nM | > 10000 nM | < 31.6 nM | 115% | 121% | 112% | 123% | 120% | 118% | 118% | 124% | 114% | 107% | 114% | 108% | 82.9% | 71.8% | 78.2% | viability, T/C [5]: 113%; viability, T/C [6]: 132%; viability, T/C [11]: 115%; viability, T/C [12]: 104%; viability, T/C [17]: 116%; viability, T/C [18]: 112%; viability, T/C [22]: 78%; viability, T/C [23]: 67.2%; viability, T/C [24]: 76.1%; viability, T/C [25]: 7.79%; viability, T/C [26]: 5.72%; viability, T/C [27]: 9.94%; viability, T/C [28]: 8.21%; viability, T/C [29]: 8.12%; viability, T/C [30]: 9.28%
2 | CC1COCCN1c1cc(-c2ccnn2C)c2ccnc(-c3ccn[nH]3)c2n1 (stereo not given) + Cc1cncc(-c2nc(NCCc3c[nH]c4ccccc34)c3ncn(C(C)C)c3n2)c1 | 192 nM | 192 nM | 150 nM | 49.8 nM | < 3.16 nM | 108% | 89.9% | 19.7% | 6.85% | 116% | 88.4% | 20.5% | 7.37% | 100% | 69% | 15% | 5.51% | 65% | 26.9% | 4.19% | viability, T/C (second compound 0.1 µM, first compound 0.00316 µM): 106%; viability, T/C (second compound 0.1 µM, first compound 0.01 µM): 114%; viability, T/C (second compound 0.316 µM, first compound 0.00316 µM): 119%; viability, T/C (second compound 0.316 µM, first compound 0.01 µM): 118%; viability, T/C (second compound 1 µM, first compound 0.00316 µM): 106%; viability, T/C (second compound 1 µM, first compound 0.01 µM): 104%; viability, T/C (second compound 3.16 µM, first compound 0.00316 µM): 74.9%; viability, T/C (second compound 3.16 µM, first compound 0.01 µM): 74.9%; viability, T/C [22]: 2.86%; viability, T/C (second compound 10 µM, first compound 0.00316 µM): 8.14%; viability, T/C (second compound 10 µM, first compound 0.01 µM): 10.1%; viability, T/C [25]: 7.76%; viability, T/C [26]: 1.45%; viability, T/C [27]: 0.29%; viability, T/C [28]: 0.46%
3 | COc1ccc([C@@H](O)c2cc(-c3ncnc4cc(N5CCOCC5)ccc34)c(F)cc2Cl)nn1 + Cc1cncc(-c2nc(NCCc3c[nH]c4ccccc34)c3ncn(C(C)C)c3n2)c1 | > 10000 nM | > 10000 nM | > 10000 nM | > 10000 nM | < 31.6 nM | 103% | 111% | 111% | 112% | 112% | 111% | 114% | 120% | 107% | 103% | 96.4% | 104% | 73% | 73.3% | 66.4% | viability, T/C [5]: 109%; viability, T/C [6]: 89.9%; viability, T/C [11]: 103%; viability, T/C [12]: 95.4%; viability, T/C [17]: 103%; viability, T/C [18]: 84.8%; viability, T/C [22]: 62.7%; viability, T/C [23]: 61.2%; viability, T/C [24]: 61.5%; viability, T/C [25]: 6.44%; viability, T/C [26]: 5.3%; viability, T/C [27]: 8.33%; viability, T/C [28]: 5.44%; viability, T/C [29]: 5.99%; viability, T/C [30]: 9.73%
